Test results taken from the NIST ThermoML archive (doi:10.1016/j.fluid.2014.05.034).
Numbers after ± are expanded uncertainties.

Legend:
[1] = for Normal melting temperature: Crystal; for mass density: 101.33 kPa, Liquid, Vibrating tube method
[2] = Molar enthalpy of transition or fusion; conditions: Crystal; DSC

## CCCCCC[n+]1ccc2ccccc2c1.O=S(=O)([N-]S(=O)(=O)C(F)(F)F)C(F)(F)F [N-hexylisoquinolinium bis(trifluoromethylsulfonyl)imide]
[1]; visual observation
  Normal melting temperature: 55.2 ± 1.1 °C

## CCCCCC[n+]1cccc2ccccc21.O=S(=O)([N-]S(=O)(=O)C(F)(F)F)C(F)(F)F [1-hexylquinolinium bis(trifluoromethylsulfonyl)amide]
[1]; visual observation
  Normal melting temperature: 45 ± 1.1 °C

## CC[N+]1(C)CCCCC1.O=S(=O)([N-]S(=O)(=O)C(F)(F)F)C(F)(F)F
[1]; visual observation
  Normal melting temperature: 82.8 ± 1.1 °C

## OCCc1ccccc1 [2-phenylethanol]
[1]; 293.15 K
  mass density: 1019 ± 1 kg/m3

## C[n+]1ccn(CC#N)c1.N#Cc1nc(C(F)(F)F)[n-]c1C#N
[1]; DTA
  Normal melting temperature: 92.7 ± 0.5 °C
[1]; visual observation
  Normal melting temperature: 93.0 ± 1.1 °C
[2]
  Molar enthalpy of transition or fusion: 7.36 ± 0.213 kcal/mol

## CCCCn1cc[n+](C)c1.N#CC1=NC(C(F)(F)F)=NC1=C=[N-]
[1]; 298.15 K
  mass density: 1199.65 ± 5 kg/m3
